Reference: patent US10464957B2, “Oxidized lipids and methods of use thereof” (Vascular Biogenics Ltd., priority 2014, dated 2019)

Columns and labels:
nephrectomized rats = experiment: 5/6 nephrectomy chronic renal disease rat model (focal and segmental glomerulosclerosis); format: in vivo, Sprague Dawley (SD) Rats
Method: Male Sprague Dawley (SD) Rats (Harlan Laboratories, Israel) with an initial weight of 200 g were housed 2-3 per cage in IVC cages in dedicated HVAC (heat, ventilation, air conditioning animal facility at a temperature of 22±2° C. and RH (relative humidity) of 55±15%). Temperature and humidity were monitored continuously. The facility had no exposure to outside light and was maintained on automatic alternating cycles of 12 hours of light and 12 hours of dark. Animals were provided with a commercial rodent diet (Harlan Teklad TRM Rat/Mouse Diet) ad libitum and allowed free access to autoclaved water, supplied to each cage via polysulphone bottles with stainless steel sipper tubes. All animal work was approved by the Animal Care and Use Committee of Israel (IL-13-03-027).
Rats were divided into three groups: (1) Healthy rats (n=3) in group A, (2) Sham group—subjected to chirurgical process but without kidney mass reduction (n=3) in group B, and (3) the rest were induced with chronic renal failure (n=32). Chronic renal failure was induced by a two stage (5/6) nephrectomy (Nx), with subtraction firstly of about ⅔ of the left kidney by left flank incision and, one week later, complete removal of the right kidney. General anesthesia consisted of intraperitoneal injection of ketamine 100 mg/kg and xylazine 20 mg/kg (0.85 ml ketamine+0.15 ml xylazine for each ml preparation; 1 μl/g BW was injected I.P).
One week following the second surgery, rats were randomly assigned to the following experimental groups:
Nephrectomized, orally administered with VB-703 4 mg/kg (n=8); and
Nephrectomized, orally administered with telmisartan 10 mg/kg as positive control (n=8).
Body weight (BW) was monitored throughout the study and rats were treated by oral gavage according to their body weight for 7 weeks. Rats were sacrificed by CO2 inhalation 8 weeks from removal of the right kidney (2nd surgery).
Proteinuria and albuminuria was determined in urine specimens, collected during a 24-hour period, from animals housed in cages at 4 weeks (3 w of treatment) and 8 weeks (7 w of treatment) after the subtotal nephrectomy (2nd surgery). Urine samples were analyzed for: glucose, urea, sodium, potassium, creatinine, total protein, and albumin.
Upon sacrifice, at 8 weeks, kidneys were collected, weighed and fixed in 4% formaldehyde.
For light microscopy, paraffin-embedded tissue slides of 4 μm were stained with Periodic Acid-Schiff (PAS) reagent, Masson's Trichrome and Hematoxylin & Eosin.
Glomerular sclerosis index. Glomerulosclerosis was assessed by PAS-stained sections using a semiquantitative scoring system. The extent of glomerulosclerosis was evaluated by examining mostly 100 randomly selected glomeruli at a magnification of ×400 and applying a score system according to the percentage of sclerosed glomerular area. The score was graded from 0 to 4: (0=0% area; 1=1-25%; 2=26-50%, 3=51-75%, 4=76% and above). The mean of all scored glomeruli was presented. Moreover, the extent of global and segmental glomerulosclerosis was evaluated in the same glomeruli, where <80% sclerosis was referred to as segmental and >80% was referred to as global.
Glomerular area. The glomerular area of mostly 100 randomly selected glomeruli at a magnification of ×100 was quantitated by counting squares covered by glomeruli area using a grid and the mean glomeruli area was calculated.
Renal tissues were fixed in 4% formaldehyde and embedded in paraffin. The paraffin-embedded tissues were then cut to form tissue slides of 4 μm. Immunohistochemistry of the paraffin-embedded tissue slides was analyzed using antibodies in the following concentration: monoclonal mouse anti rat CD-68 (ED-1, Serotec MCA341) 1:25. For quantitation of interstitial CD68+ staining, the number of positive cells was counted in 20 randomly selected non-overlapping fields per animal, and the mean value was presented. […]

[1] = system: Pam3CSK4 (TLR2)-stimulated human monocytes (primary CD14+); experiment: IL-12/23p40 ELISA, Pam3CSK4 (TLR2)-stimulated monocytes; format: cell-based; conditions: 1 hour pretreatment, 24 hour 300 ng/ml Pam3CSK4, ELISA of supernatant
Method: Human monocytes were obtained as described in Example 9 and FIG. 9A-9B. Human monocytes were seeded (10^6/ml) and pretreated for 1 hour with VB-201, VB-701 or VB-702, followed by 24 hour activation with 100 ng/ml LPS from Escherichia coli strain 055:B5 (Sigma, Israel) (FIG. 9A) or 300 ng/ml Pam3CSK4 (InvivoGen, San Diego, Calif., USA) (FIG. 9B) to induce cytokine production. IL-12/23p40 concentration in the supernatant was then measured by ELISA (R&D systems, Cat. No. DY1240). Cells activated with solvent (0.5% ethanol in PBS) were used as a control.

[2] = system: human monocytes (primary CD14+); experiment: Chemokine-induced cell migration trans-well assay; format: cell-based; conditions: RANTES 100 ng/ml and MCP-1 50 ng/ml, 2-4 hours, FACS count
Method: Venous blood samples were obtained from healthy male donors in compliance with the Institutional Review Board at the Sheba Medical Center, Ramat Gan, Israel. PBMCs were isolated on Ficoll-Paque PLUS (GE Healthcare, Uppsala, Sweden) using 50 ml Leucosep tubes (Greiner Bio-One, Frickenhausen, Germany). Cells were washed in PBS (Kibbutz Beit Haemek, Israel) and incubated at 4° C. for 15 minutes in a buffer containing PBS and 0.5% bovine serum albumin (BSA) with human CD14 microbeads (Miltenyi Biotec, Bergisch Gladbach, Germany).
Cells (10^6/ml) were pretreated for 20 min with VB-201 or VB-701 at the doses indicated in FIG. 5, or with solvent (Sol).
To test for chemokine-induced cell migration, RANTES (100 ng/ml; Cat. No. 300-06, PeproTech, Israel) and MCP-1 (50 ng/ml; Cat. No. 300-04, PeproTech, Israel) were dissolved in RPMI-1640 medium supplemented with 0.5% fetal bovine serum (FBS) and placed at the lower chamber of QCM 24-well, […], migration assay plates (Corning-Costar, Corning, N.Y.). Cells (3×10^5) were seeded in the upper chamber and incubated for 2-4 hours. Subsequently, the number of cells which migrated to the lower compartment was determined by fluorescence-activated cell sorting (FACS).

[3] = Nx rats, VB-703 4 mg/kg, Telmisartan 10 mg/kg, 8 weeks, Mean ± S.E
[4] = VB-703 4 mg/kg, telmisartan 10 mg/kg, oral 7 weeks, vs Nx PBS 0.5% Eth

Row | SMILES | Glomerular sclerosis Global % (nephrectomized rats; [3]) | Glomerular sclerosis Global & Segmental % (nephrectomized rats; [3]) | Glomerular sclerosis Segmental % (nephrectomized rats; [3]) | urinary albumin/creatinine/day ratio (nephrectomized rats; VB-703 4 mg/kg oral, at the termination of the study (8 weeks)) | glomerular and interstitial monocyte/macrophage infiltration (CD68 positive cells) (nephrectomized rats; VB-703 4 mg/kg, telmisartan 10 mg/kg, 8 weeks) | reduction of damaged glomeruli percent (nephrectomized rats; [4]) | reduction of sclerotic glomeruli (nephrectomized rats; [4]) | IL-12p40 levels, Pam3CSK4 (TLR2)-stimulated [1] | chemokine-induced migration of human monocytes [2]
1 | CCCCCCCCCCC(CCCCCCCC)COC[C@H](COP(=O)([O-])OCC[n+]1ccccc1)OCCCCC(=O)O (stereo partly drawn) [VB-703, (R)-1-(2′-octyl)dodecyl-2-(4′-carboxy)butyl-sn-glycero-3-phosphoric acid pyridiniumethyl ester] | 1.9 ± 1.55% | 24.7 ± 3.77% | 22.9 ± 2.83% | significantly improved | did not produce a significant effect | 38% | 49% |  | 
2 | CCCCCCCCCCCCCCCCOCC(COP(=O)([O-])OCC[N+](C)(C)C)OCCCCC(=O)O (stereo not drawn) [VB-201, 1-hexadecyl-2-(4′-carboxy)butyl-glycero-3-phosphocholine, reference compound] |  |  |  |  |  |  |  | inhibit | inhibit
